Source: PubChem BioAssay (NCI)
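In this assay, cells in 96-well plates receive the compound at five concentrations for 48 hours. Endpoints are linearly interpolated between the surrounding concentrations. GI50 marks 50% less growth. Definition used: TGI = concentration required for complete inhibition of growth.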

Columns and labels:
Assay in all cases: NCI-60 cell line screen, 48 h
M14 melanoma = system: M14 melanoma
OVCAR-3 ovarian = system: OVCAR-3 ovarian
BT-549 breast = system: BT-549 breast
LOX IMVI melanoma = system: LOX IMVI melanoma
HL-60(TB) leukemia = system: HL-60(TB) leukemia
SR leukemia = system: SR leukemia
NCI-H460 lung = system: NCI-H460 lung
MALME-3M melanoma = system: MALME-3M melanoma
KM12 colon = system: KM12 colon
UACC-62 melanoma = system: UACC-62 melanoma

Question: With `CO/C(=N\N=C\c1ccc(Cl)cc1Cl)c1ccncc1` as the compound, how does the TGI (M14 melanoma) read?
Answer: Its TGI is > 10 µM.

Question: What about the TGI (OVCAR-3 ovarian) of the same compound?
Answer: Its TGI is > 10 µM.

Question: What about the TGI (BT-549 breast) of the same compound?
Answer: The TGI was > 10 µM.

Question: What about the TGI (LOX IMVI melanoma) of the same compound?
Answer: Its TGI is > 10 µM.

Question: What about the TGI (HL-60(TB) leukemia) of the same compound?
Answer: Its TGI is > 10 µM.

Question: And the TGI (SR leukemia)?
Answer: Its TGI is > 10 µM.

Question: What about the TGI (NCI-H460 lung) of the same compound?
Answer: The TGI was > 10 µM.

Question: What about the TGI (MALME-3M melanoma) of the same compound?
Answer: Its TGI is > 10 µM.

Question: What about the TGI (KM12 colon) of the same compound?
Answer: Its TGI is > 10 µM.

Question: With `CN(C)/C=C/c1nnnn1-c1ccc(Cl)cc1` as the compound, how does the GI50 (M14 melanoma) read?
Answer: The GI50 was 5.21 µM.

Question: And the TGI (M14 melanoma)?
Answer: The TGI was 44.1 µM.

Question: What about the GI50 (UACC-62 melanoma) of the same compound?
Answer: The GI50 was 8.22 µM.

Question: What about the TGI (UACC-62 melanoma) of the same compound?
Answer: Its TGI is 31.4 µM.

Question: And the GI50 (BT-549 breast)?
Answer: Its GI50 is 8.56 µM.

Question: What about the TGI (BT-549 breast) of the same compound?
Answer: The TGI was 38.7 µM.

Question: And the GI50 (LOX IMVI melanoma)?
Answer: The GI50 was 21.7 µM.

Question: What about the TGI (LOX IMVI melanoma) of the same compound?
Answer: Its TGI is > 100 µM.

Question: What about the GI50 (SR leukemia) of the same compound?
Answer: Its GI50 is 3.35 µM.

Question: What about the TGI (SR leukemia) of the same compound?
Answer: Its TGI is 29.6 µM.

Question: And the GI50 (NCI-H460 lung)?
Answer: Its GI50 is 16.9 µM.

Question: What about the TGI (NCI-H460 lung) of the same compound?
Answer: Its TGI is 37.3 µM.

Question: And the GI50 (MALME-3M melanoma)?
Answer: The GI50 was 12.8 µM.

Question: What about the TGI (MALME-3M melanoma) of the same compound?
Answer: Its TGI is 38.7 µM.

Question: And the GI50 (KM12 colon)?
Answer: The GI50 was 22 µM.

Question: What about the TGI (KM12 colon) of the same compound?
Answer: The TGI was 64.8 µM.

Question: With `CN(C)C(=S)NN=C(c1ccccn1)c1ccccn1` as the compound, how does the GI50 (M14 melanoma) read?
Answer: Its GI50 is < 0.0147 µM.

Question: What about the TGI (M14 melanoma) of the same compound?
Answer: Its TGI is 0.349 µM.

Question: What about the GI50 (OVCAR-3 ovarian) of the same compound?
Answer: Its GI50 is < 0.01 µM.

Question: What about the TGI (OVCAR-3 ovarian) of the same compound?
Answer: Its TGI is 30.5 µM.

Question: And the GI50 (UACC-62 melanoma)?
Answer: Its GI50 is 0.077 µM.

Question: And the TGI (UACC-62 melanoma)?
Answer: The TGI was 0.739 µM.

Question: What about the GI50 (BT-549 breast) of the same compound?
Answer: Its GI50 is 0.074 µM.

Question: And the TGI (BT-549 breast)?
Answer: The TGI was 15.4 µM.

Question: And the GI50 (LOX IMVI melanoma)?
Answer: The GI50 was < 0.01 µM.

Question: And the TGI (LOX IMVI melanoma)?
Answer: Its TGI is 11.5 µM.

Question: What about the GI50 (HL-60(TB) leukemia) of the same compound?
Answer: Its GI50 is < 0.0479 µM.

Question: And the GI50 (NCI-H460 lung)?
Answer: The GI50 was < 0.025 µM.

Question: And the GI50 (MALME-3M melanoma)?
Answer: The GI50 was < 0.0331 µM.

Question: What about the TGI (MALME-3M melanoma) of the same compound?
Answer: Its TGI is 0.503 µM.

Question: And the GI50 (KM12 colon)?
Answer: Its GI50 is 0.046 µM.

Question: What about the TGI (KM12 colon) of the same compound?
Answer: Its TGI is 21.6 µM.

Question: Which results are given for `CC(=O)NC1=C(C)C(=O)c2c(nc3n2CCC3O)C1=O` (configuration not stated)?
Answer: TGI (M14 melanoma): > 100 µM; TGI (OVCAR-3 ovarian): > 46.1 µM; TGI (UACC-62 melanoma): 38.2 µM; TGI (LOX IMVI melanoma): > 100 µM; TGI (HL-60(TB) leukemia): 44.2 µM; TGI (SR leukemia): 35 µM; TGI (NCI-H460 lung): > 100 µM; TGI (MALME-3M melanoma): 37.5 µM; TGI (KM12 colon): > 100 µM

Question: `CCN(CC)CC(=O)/C=C/c1ccc(C)cc1` was tested. Which TGI (M14 melanoma) did it give?
Answer: The TGI was 32.2 µM.

Question: And the TGI (OVCAR-3 ovarian)?
Answer: Its TGI is 45.1 µM.

Question: And the TGI (UACC-62 melanoma)?
Answer: Its TGI is 32.5 µM.

Question: What about the TGI (LOX IMVI melanoma) of the same compound?
Answer: Its TGI is 34.4 µM.

Question: What about the TGI (HL-60(TB) leukemia) of the same compound?
Answer: The TGI was 52 µM.

Question: And the TGI (SR leukemia)?
Answer: Its TGI is 78.8 µM.

Question: And the TGI (NCI-H460 lung)?
Answer: The TGI was 46 µM.

Question: And the TGI (MALME-3M melanoma)?
Answer: The TGI was 41.2 µM.

Question: And the TGI (KM12 colon)?
Answer: The TGI was 39 µM.

Question: With `CC(C)COC(=O)N1N=NC2C3OC(CC3=O)C21` (configuration not stated) as the compound, how does the TGI (M14 melanoma) read?
Answer: Its TGI is > 100 µM.

Question: What about the TGI (OVCAR-3 ovarian) of the same compound?
Answer: Its TGI is > 100 µM.

Question: And the TGI (UACC-62 melanoma)?
Answer: The TGI was > 100 µM.

Question: What about the TGI (LOX IMVI melanoma) of the same compound?
Answer: The TGI was > 100 µM.

Question: What about the TGI (HL-60(TB) leukemia) of the same compound?
Answer: Its TGI is > 100 µM.

Question: And the TGI (SR leukemia)?
Answer: Its TGI is > 100 µM.

Question: What about the TGI (NCI-H460 lung) of the same compound?
Answer: Its TGI is > 100 µM.

Question: And the TGI (MALME-3M melanoma)?
Answer: The TGI was > 100 µM.

Question: And the TGI (KM12 colon)?
Answer: Its TGI is > 100 µM.

Question: Which results are given for `CCOC(=O)c1cc2c(n1Cc1cc(OC)cc(OC)c1)-c1oncc1CCC2`?
Answer: GI50 (M14 melanoma): 0.057 µM; TGI (M14 melanoma): > 100 µM; GI50 (OVCAR-3 ovarian): 0.0274 µM; TGI (OVCAR-3 ovarian): 0.0889 µM; GI50 (UACC-62 melanoma): 0.0714 µM; TGI (UACC-62 melanoma): > 100 µM; GI50 (BT-549 breast): 0.89 µM; TGI (BT-549 breast): > 100 µM; GI50 (LOX IMVI melanoma): 0.119 µM; TGI (LOX IMVI melanoma): > 100 µM; GI50 (HL-60(TB) leukemia): 0.0311 µM; TGI (HL-60(TB) leukemia): 0.0972 µM; GI50 (SR leukemia): 0.0382 µM; TGI (SR leukemia): > 100 µM; GI50 (NCI-H460 lung): 0.071 µM; TGI (NCI-H460 lung): > 100 µM; GI50 (KM12 colon): 0.0472 µM; TGI (KM12 colon): > 20.5 µM

Question: Which results are given for `CS(=O)(=O)OCCN1CCN(C(=O)c2cccc3c(Nc4ccc(S(N)(=O)=O)cc4)c4ccccc4nc23)CC1`?
Answer: TGI (M14 melanoma): > 100 µM; TGI (OVCAR-3 ovarian): > 100 µM; TGI (UACC-62 melanoma): > 100 µM; TGI (LOX IMVI melanoma): > 59.1 µM; TGI (HL-60(TB) leukemia): > 100 µM; TGI (SR leukemia): > 100 µM; TGI (NCI-H460 lung): > 100 µM; TGI (MALME-3M melanoma): > 100 µM; TGI (KM12 colon): > 100 µM

Question: Which TGI (M14 melanoma) does the source give for `CC1=C(C)CC2(SC1)C(=O)c1ccccc1C2=O` here?
Answer: The TGI was > 100 µM.

Question: What about the TGI (UACC-62 melanoma) of the same compound?
Answer: Its TGI is > 100 µM.

Question: And the TGI (LOX IMVI melanoma)?
Answer: Its TGI is > 100 µM.

Question: And the TGI (HL-60(TB) leukemia)?
Answer: Its TGI is > 100 µM.

Question: And the TGI (SR leukemia)?
Answer: The TGI was > 100 µM.

Question: And the TGI (NCI-H460 lung)?
Answer: Its TGI is > 100 µM.

Question: And the TGI (MALME-3M melanoma)?
Answer: The TGI was > 100 µM.

Question: And the TGI (KM12 colon)?
Answer: The TGI was > 100 µM.

Question: `O=C1CSC2=NCC3(NN12)c1ccccc1-c1ccccc13` was tested. Which TGI (M14 melanoma) did it give?
Answer: The TGI was > 10 µM.

Question: And the TGI (UACC-62 melanoma)?
Answer: The TGI was > 10 µM.

Question: What about the TGI (BT-549 breast) of the same compound?
Answer: The TGI was > 10 µM.

Question: And the TGI (LOX IMVI melanoma)?
Answer: The TGI was > 10 µM.

Question: What about the TGI (HL-60(TB) leukemia) of the same compound?
Answer: The TGI was > 10 µM.

Question: What about the TGI (SR leukemia) of the same compound?
Answer: The TGI was > 10 µM.

Question: And the TGI (NCI-H460 lung)?
Answer: Its TGI is > 10 µM.

Question: What about the TGI (MALME-3M melanoma) of the same compound?
Answer: Its TGI is > 10 µM.

Question: What about the TGI (KM12 colon) of the same compound?
Answer: The TGI was > 10 µM.
